According to patent US20240139235A1, “IRON(III) FORMULATIONS FOR THE TREATMENT OF GASTROINTESTINAL INFLAMMATION” (PHARMANUTRA S.P.A., priority 2021, published 2024):

Key:
Format in all cases: in vivo
[1] = test system: Bacteroidota; experiment: Faecal microbiome changes at phylum level: Bacteroidota; settings: faecal samples, mice, two weeks on diet 50 mg/kg iron vs baseline (FIG. 5)
Description: (§1) Thirty C57BL/6 male mice at four weeks of age were subjected to an iron deficient diet (based on the AIN-93G rodent diet, ˜1 mg kg of iron). All mice were bred in the same environment (QIMR Berghofer Animal Facility) to minimise the inherent variability in the microbiome between individual mice.
(§2) At six weeks of age (i.e. two weeks with an iron deficient diet), faeces were collected for microbiome analysis. This was the control sample for each mouse and it represents the basic microbiome of that particular animal when the lumen is iron deficient. […]
(§3) Faecal samples were then collected from each mouse at eight weeks of age (i.e. two weeks with diets containing iron), the mice sacrificed and the tissues collected for analysis. […] Haematological parameters were evaluated immediately after euthanasia using a “Coulter Ac-T diff Hematology Analyzer” (Beckman Coulter, Gladesville, NSW, Australia). Serum iron parameters, analysed using the Iron/TIBC Reagent Kit (Pointe Scientific, Canton, MI), and iron levels in tissues were determined as described above [Frazer, D. M., et al. Cell Mol Gastroenterol Hepatol 3, 410-421 (2017)]. […] DNA was extracted from the faecal samples and the microbial profile (QIMR Berghofer Medical Research Institute) was determined. […]

[2] = Iron status and haematological parameters of mice fed iron diets; settings: C57BL/6 male mice, diet 50 mg/kg iron for two weeks
Description: as §1
(§4) After faecal collection at six weeks of age, mice were switched from an iron deficient diet to a diet containing 50 mg/kg of iron such as ferrous sulfate (iron (II) sulfate) or Sucrosomial® iron (ten mice per group).
Faecal samples were then collected from each mouse at eight weeks of age (i.e. two weeks with diets containing iron), the mice sacrificed and the tissues collected for analysis. Liver and serum samples were collected from each animal after euthanasia and stored at −80° C. Haematological parameters were evaluated immediately after euthanasia using a “Coulter Ac-T diff Hematology Analyzer” (Beckman Coulter, Gladesville, NSW, Australia). […] For the analysis of iron and haematological parameters, the statistical differences between the groups were calculated using the unidirectional ANOVA followed by the Tukey post-hoc test for the groups with equal variance or by the Games-Howell post-hoc test for those with unequal variance. Significant differences in variance were identified using the Levene test. DNA was extracted from the faecal samples and the microbial profile (QIMR Berghofer Medical Research Institute) was determined.
• ID: control group, maintained on iron deficient diet (about 1 mg/kg iron). • FS: group fed with diet containing 50 mg/kg of iron in the form of ferrous sulfate (FS abbreviation for ferrous sulfate)—Fe(II). • SI: group fed with diet containing 50 mg/kg of iron in the form of Sucrosomial® iron (SI abbreviation for sucrosomial iron)—Fe(III).
After being sacrificed at the age of eight weeks, iron levels in the liver and in the serum, as well as the haematological parameters of mice of the three groups under analysis (ID, FS and SI) were examined.

[3] = Body weight of mice on iron diets; settings: C57BL/6 male mice, diet 50 mg/kg iron for two weeks; comparison of ID, FS and SI groups (FIG. 1A)
Description: as §1, §4
The remaining ten mice were a control group that remained on the deficient diet.
Faecal samples were then collected from each mouse at eight weeks of age (i.e. two weeks with diets containing iron), the mice sacrificed and the tissues collected for analysis. Liver and serum samples were collected from each animal after euthanasia and stored at −80° C. Haematological parameters were evaluated immediately after euthanasia using a “Coulter Ac-T diff Hematology Analyzer” (Beckman Coulter, Gladesville, NSW, Australia). Serum iron parameters, analysed using the Iron/TIBC Reagent Kit (Pointe Scientific, Canton, MI), and iron levels in tissues were determined as described above [Frazer, D. M., et al. Cell Mol Gastroenterol Hepatol 3, 410-421 (2017)]. […] DNA was extracted from the faecal samples and the microbial profile (QIMR Berghofer Medical Research Institute) was determined. […]

[4] = test system: gut microbiome of mice; experiment: Faecal microbiome diversity (beta and alpha diversity) in mice; settings: faecal samples, two weeks on diet 50 mg/kg iron
Description: as §1, §2
Faecal samples were then collected from each mouse at eight weeks of age (i.e. two weeks with diets containing iron), the mice sacrificed and the tissues collected for analysis. […] Haematological parameters were evaluated immediately after euthanasia using a “Coulter Ac-T diff Hematology Analyzer” (Beckman Coulter, Gladesville, NSW, Australia). Serum iron parameters, analysed using the Iron/TIBC Reagent Kit (Pointe Scientific, Canton, MI), and iron levels in tissues were determined as described above [Frazer, D. M., et al. Cell Mol Gastroenterol Hepatol 3, 410-421 (2017)]. […] DNA was extracted from the faecal samples and the microbial profile (QIMR Berghofer Medical Research Institute) was determined.

[5] = test system: Lachnospiraceae spp, Rikenellaceae RC9, Faecalibaculum, Colidextribacter, Oscillibacter, Parasutterella, Lactobacillus; experiment: Faecal microbiome changes at Amplicon Single Variant (ASV)/genus level; settings: faecal samples, mice, two weeks on diet 50 mg/kg iron vs baseline (FIG. 6G)
Description: as §1, §2, §3

For ferrous sulfate, the “abundance of phylum Bacteroidota, change vs baseline” value [1] was “significantly reduced”, the “iron concentration in the liver” value ([2]; Sucrosomial iron vs ferrous sulfate (FIG. 1B)) was “no significant differences” and the serum iron levels ([2]; Sucrosomial iron vs ferrous sulfate (FIG. 1C)) was “no significant differences”. For the same substance, the transferrin saturation ([2]; Sucrosomial iron vs ferrous sulfate (FIG. 1D)) was “no significant differences”, the “red blood cell count” value ([2]; Sucrosomial iron vs ferrous sulfate (FIG. 2A)) was “no significant differences” and the haemoglobin ([2]; Sucrosomial iron vs ferrous sulfate (FIG. 2B)) was “no significant differences”. For the same substance, the haematocrit ([2]; Sucrosomial iron vs ferrous sulfate (FIG. 2C)) was “no significant differences”, the mean corpuscular volume ([2]; Sucrosomial iron vs ferrous sulfate (FIG. 2D)) was “no significant differences” and the body weight [3] was “no significant differences”. For the same substance, the “Shannon index (alpha diversity) per group” value ([4]; unpaired comparison of groups (FIG. 4A)) was “lower”, the “beta diversity (overall microbial composition, PCoA)” value ([4]; vs iron deficient diet (FIG. 3)) was “able to be distinguished from samples taken from mice on iron-deficient diets” and the “Lactobacillus at the genus level, change vs baseline” value [5] was “no similar decrease”.
